The text below walks through data of PMC6298115, “Design and in vitro realization of carbon-conserving photorespiration” (Proceedings of the National Academy of Sciences of the …, 2018).

The target of series [1] is T1, RpPduP (Rhodopseudomonas palustris, UniProt Q21A49).
T1 construct: gene RPC_1174; N-terminal 6xHis, pET45a, expressed in E. coli BL21(DE3), Ni-NTA
The series is described as follows: NADPH oxidation, absorbance at […] nm. Type of series: biochemical. The settings on record: pH 8.0 Hepes, 37 °C, 5 mM MgCl2.

The target in series [2] is T2, RpPduP (Rhodopseudomonas palustris, UniProt Q21A49, P164G/I199R/N203L/I222L/L268I/P269T/V271T/L423H, form not given).
T2 construct: gene RPC_1174; N-terminal 6xHis, pET45a, expressed in E. coli BL21(DE3), Ni-NTA
T2 sequence (Q21A49 entry or part of it P164G/I199R/N203L/I222L/L268I/P269T/V271T/L423H, form open): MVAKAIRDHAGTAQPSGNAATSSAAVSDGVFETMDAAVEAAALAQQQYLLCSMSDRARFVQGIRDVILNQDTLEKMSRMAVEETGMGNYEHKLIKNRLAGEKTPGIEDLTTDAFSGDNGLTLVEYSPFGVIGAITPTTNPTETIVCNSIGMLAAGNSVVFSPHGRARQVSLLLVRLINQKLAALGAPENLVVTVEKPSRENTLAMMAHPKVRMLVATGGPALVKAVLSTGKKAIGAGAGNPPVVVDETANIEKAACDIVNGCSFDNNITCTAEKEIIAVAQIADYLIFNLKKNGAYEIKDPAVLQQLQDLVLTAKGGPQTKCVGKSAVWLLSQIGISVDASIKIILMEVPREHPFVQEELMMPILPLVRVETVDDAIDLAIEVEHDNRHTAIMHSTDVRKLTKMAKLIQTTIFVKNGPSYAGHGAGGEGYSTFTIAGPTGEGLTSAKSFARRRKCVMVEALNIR
The series is described as follows: NADPH oxidation, absorbance at […] nm. The settings on record: GCR, pH 8.0 Hepes, 37 °C, 5 mM MgCl2, Table 2 note numbers mutations +2, read-out: Engineered GCR. It is filed as biochemical.

The target in series [3] is T1, RpPduP. The series is described as follows: NADH oxidation, absorbance at […] nm. The settings on record: pH 8.0 Hepes, 37 °C, 5 mM MgCl2. It is filed as biochemical.
Series [4] addresses T2, RpPduP. Briefly: NADH oxidation, absorbance at […] nm. It is filed as biochemical. As to conditions: GCR; saturating acetyl-CoA; pH 8.0 Hepes, 37 °C, 5 mM MgCl2; Table 2 note numbers mutations +2; read-out: Engineered GCR.
Substrate in the series “purified protein”: CC(=O)O
The series is described as follows: purified protein. The settings on record: 1 mM CoA, 2.5 mM ATP, 5 mM MgCl2, 1 mM DTT, pH 8.0 Hepes, 37 °C.

T1 sequence (Q21A49 entry or part of it): as the sequence (Q21A49 entry or part of it P164G/I199R/N203L/I222L/L268I/P269T/V271T/L423H, form open) above, with G164P, R199I, L203N, L222I, I268L, T269P, T271V, H423L counted along it

With `CC(=O)SCCNC(=O)CCNC(=O)[C@H](O)C(C)(C)COP(=O)(O)OP(=O)(O)OC[C@H]1O[C@@H](n2cnc3c(N)ncnc32)[C@H](O)[C@@H]1OP(=O)(O)O` [acetyl-CoA], the Km on RpPduP [1] (saturating NADPH) was found to be 220 ± 20 µM; at RpPduP [2] (saturating NADPH) it was 220 ± 60 µM.
Take `NC(=O)C1=CN([C@@H]2O[C@H](COP(=O)(O)OP(=O)(O)OC[C@H]3O[C@@H](n4cnc5c(N)ncnc54)[C@H](O)[C@@H]3O)[C@@H](O)[C@H]2O)C=CC1` [NADH]: the values for the Km at RpPduP [3] (saturating acetyl-CoA) and at RpPduP [4] were 120 ± 30 µM and 70 ± 10 µM, respectively.
With `CC(C)(COP(=O)(O)OP(=O)(O)OC[C@H]1O[C@@H](n2cnc3c(N)ncnc32)[C@H](O)[C@@H]1OP(=O)(O)O)[C@@H](O)C(=O)NCCC(=O)NCCSC(=O)CO` [glycolyl-CoA], the Km on RpPduP [2] (saturating NADPH) worked out at 240 ± 20 µM; on RpPduP [3] (saturating NADH) it was 220 ± 120 µM.
Take `NC(=O)C1=CN([C@@H]2O[C@H](COP(=O)(O)OP(=O)(O)OC[C@H]3O[C@@H](n4cnc5c(N)ncnc54)[C@H](OP(=O)(O)O)[C@@H]3O)[C@@H](O)[C@H]2O)C=CC1` [NADPH]: the Km came to 370 ± 90 µM at RpPduP [1] (saturating glycolyl-CoA) and 240 ± 60 µM on RpPduP [2] (saturating glycolyl-CoA).

B1: EcACS (Escherichia coli K-12) (protein)
chain: MSQIHKHTIPANIADRCLINPQQYEAMYQQSINVPDTFWGEQGKILDWIKPYQKVKNTSFAPGNVSIKWYEDGTLNLAANCLDRHLQENGDRTAIIWEGDDASQSKHISYKELHRDVCRFANTLLELGIKKGDVVAIYMPMVPEAAVAMLACARIGAVHSVIFGGFSPEAVAGRIIDSNSRLVITSDEGVRAGRSIPLKKNVDDALKNPNVTSVEHVVVLKRTGGKIDWQEGRDLWWHDLVEQASDQHQAEEMNAEDPLFILYTSGSTGKPKGVLHTTGGYLVYAALTFKYVFDYHPGDIYWCTADVGWVTGHSYLLYGPLACGATTLMFEGVPNWPTPARMAQVVDKHQVNILYTAPTAIRALMAEGDKAIEGTDRSSLRILGSVGEPINPEAWEWYWKKIGNEKCPVVDTWWQTETGGFMITPLPGATELKAGSATRPFFGVQPALVDNEGNPLEGATEGSLVITDSWPGQARTLFGDHERFEQTYFSTFKNMYFSGDGARRDEDGYYWITGRVDDVLNVSGHRLGTAEIESALVAHPKIAEAAVVGIPHNIKGQAIYAYVTLNHGEEPSPELYAEVRNWVRKEIGPLATPDVLHWTDSLPKTRSGKIMRRILRKIAAGDTSNLGDTSTLADPGVVEKLLEEKQAIAMPS
One may read the kcat as the maximal rate divided by the concentration of active sites. What is called kcat/Km is the second-order rate constant that governs catalysis at low substrate concentration. As for B1, in the series “purified protein”, the Km was 87 ± 4 µM, the kcat was 13.5 s⁻¹ and the specificity constant (kcat/Km) was 155000 M⁻¹ s⁻¹.
